Measurements taken from patent US20220033448A1, “METHODS FOR AGGREGATION OF PROTEINS” (priority 2011, published 2022).
Where two headings read alike, the source gives them in different places. No end group written: not given here.

Experiments:
[1] = tested on: E. coli; details: E. coli ATCC25922; planktonic bacteria; read-out after 18 hours of growth
Experimental: (§1) Bacteria were grown in a shaking incubator at 37° C. and 160rpm in 50 ml BHI , using individual colonies retrieved from a fresh overnight TSA-sheep blood plate. The cultures were grown to a density of approximately 1×10^8cells/ml and then diluted to 5×10^5 cells/ml in CAMHB (Mc Farland 0.5). Each well contained 100p.I (50p.I of peptide containing MHB plus 50 μl inoculum). The final cell density was 1×10^5 to 5×10^5/ml. After addition of the cell suspension, plates were incubated at 37° C. for 18 to 24 hours. The optical density at 590 nm (OD590) of each well was measured after 5 seconds of shaking the plate using Perkin Elmer spectrophotometer (1420 Multilabel Counter Vicotr 3). […] Each well, where no growth was observed, was also plated on TSA-sheep blood agar plates, incubated at 37° C. overnight and visually inspected.
(§2) A microbroth dilution method was used with twofold serial dilutions in CAMHB (according to EMEA guidelines) was used for screening of peptide activity, with concentrations ranging from 0.3 μg/mIto 200 μg/ml.

[2] = tested on: E. faecalis; details: E. faecalis ATCC 19433; planktonic; 18 hours
Experimental: as §1, §2

[3] = Preliminary in vivo toxicity in rats; details: 1.5 mg/kg and 3 mg/kg, single injection into a tail vein, observed over several days
Experimental: In order to assess the toxicity of the antibacterial peptide interferors in vivo, eight germ-free fisher male and female rats, weighing approximately ±350 grams were injected with peptide interferor C30 in buffer A: histidine-acetate(pH 6.5) and buffer B phosphate buffer (pH 6.5). Two rats were injected with a concentration of 1.5 mg/kg and two with a concentration of 3 mg/kg. These were single non repeatable injections into a tail vein.

[4] = tested on: S. capitis; assay: MIC, microbroth dilution; details: planktonic, 18 hours
Experimental: as §1

[5] = tested on: Listeria monocytogenes ATCC 11994; assay: MIC, microbroth dilution; details: planktonic, 18 hours
Experimental: as §1

[6] = Preliminary in vivo toxicity in mice; details: Swiss mice
Experimental: Further, three groups of 6-weeks old female Swiss mice were injected with increasing C30 doses over a period of 1 week. C30 was dissolved in physiological water and 1 injection per day was given. In the first 3 days injections in the tail vein were given (150 μl per injection) and during the remaining 2 days IP injections (300 μl per injection). The primary dose started from 3 mg/kg and each day the dose was increased gradually. The control group received the same volume of saline. The highest dose analyzed for IV injections was 50 mg/kg and for the IP injections 100 mg/kg. […] Organs of treated and control mice were subjected to further histological analysis. After all 5 injections were given, blood was taken by retro-orbital puncture and analyzed.

[7] = tested on: S. aureus; assay type: cell-based, Staphylococcus aureus
[8] = tested on: S. aureus
[9] = tested on: Ps. aeruginosa ATCC27853; assay: MIC, microbroth dilution; details: planktonic, 18 hours
Experimental: as §1

[10] = tested on: Candida albicans SC5314; assay: C. albicans adhesion on polyurethane catheters (CFU counting); assay type: cell-based; details: 50 μM; adhesion 90 min at 37° C.; control 3.06 ±0.39
Experimental: In vitro C. albicans biofilm was studied on three different types of biomaterials, namely flat bottom 96-well polystyrene plate (Greiner Bio-One, Germany), silicone (CS Hyde, USA) and polyurethane triple lumen intravenous catheters (2.4mm diameter) (Arrow International Reading, USA). Prior the biofilm set up, silicone was cut into small square pieces (1 cm×1 cm) and polyurethane into 1 cm pieces. Silicone or polyurethane devices were incubated in 99% FBS (F7524, Sigma) overnight at 37° C. Cells were washed and resuspended in 1 x phosphate buffered saline (PBS), pH 7.4. Candida suspension of 1×10^7 cells/ml or 5.10^4 cells/ml was prepared in RPMI1640-MOPS medium, Ssuccinate, pH 6.5 or in YNB medium, 4% D-glucose. In total, 1 ml of the cell suspension was added to the silicone discs or polyurethane catheters placed in 24 well plate and 100 μl of cell suspension was inoculated into 96-well polystyrene plate. The attachment of the cells to a substrate was achieved by incubation at 37° C., for 90 min under static conditions (period of adhesion). […] After that, the biofilms were washed twice with 1×PBS and quantified.
The amount of fungal biofilm biomass formed inside the catheter lumen of in vitro and in vivo explanted catheters was determined by colony forming units (CFU). […] CFUs were counted after two days at 37° C.

[11] = tested on: Candida albicans SC5314; assay: C. albicans SC5314 adhesion on 96-well polystyrene plates (XTT reduction assay); assay type: cell-based; details: 90 min adhesion at 37° C.
Experimental: In a next step, lower concentrations of peptide F9 (50 μM, 10 μM and 2.5 μM) were also tested. First, we elucidated the effect of peptide F9 during the period of adhesion (90 min at 37° C.). Then, we tested its effect on further biofilm development, by changing the medium with fresh RPMI1640-MOPS, in the absence of peptide for 48 h. Both assays were performed in 96-well polystyrene plates and quantified by the XTT reduction assay (see material and methods section).
In vitro C. albicans biofilm was studied on three different types of biomaterials, namely flat bottom 96-well polystyrene plate (Greiner Bio-One, Germany), silicone (CS Hyde, USA) and polyurethane triple lumen intravenous catheters (2.4mm diameter) (Arrow International Reading, USA). […] After that, the biofilms were washed twice with 1×PBS and quantified.
The metabolic activity of Candida cells within in vitro biofilms was studied using the XTT reduction assay. This method is based on colorimetric change of a specific substrate—XTT (2,3-bis(2-methoxy-4-nitro-5-sulpho-phenyl)-2H-tetrazolium-5-carboxanilide) (Sigma, USA) which is reduced to XTT formazan by mitochondrial dehydrogenases of metabolic active cells measured by spectrophotometer at 490 nm. […] The intensity of colorimetric change was measured by spectrophotometer (Spectra max Plus 384) at 490 nm. […]

[12] = tested on: Candida glabrata ATCC2001; assay: C. glabrata adhesion and biofilm formation on 96-well polystyrene plates (XTT); assay type: cell-based; details: 96-well polystyrene plates in vitro
Excerpt: The specificity of interferor peptide F9 was investigated for C. albicans as compared to a distant Candida spp., i.e. Candida glabrata ATCC2001, for biofilm formation inhibition in vitro. The beta-aggregation sequence of the F9 peptide ([…] (SEQ ID NO: 71)) is not present in C. glabrata—the most closely related sequence in C. glabrata is […] (SEQ ID NO: 73). […] We tested the effect of F9 against C. glabrata adhesion and biofilm formation on 96-well polystyrene plates in vitro.

RILLGLIRRGSRILLGLIRR [C30]
MIC [1]: E. coli ATCC25922: 100 μg/ml | MIC [2]: E. faecalis ATCC 19433: 6 μg/ml | mortality and side effects [3]: no mortality nor any other side effects were apparently visible | MIC [4]: S. capitis: 1.5 μg/ml | MIC [5]: Listeria monocytogenes ATCC 11994: 1.5 μg/ml | side effects ([6]; IP injection, highest dose of 100 mg/kg): developed a subcutaneous lesion bump | mortality and side effects ([6]; IV injections, increasing doses from 3 mg/kg, highest dose 50 mg/kg): no signs of mortality nor any other visible side effects | blood analysis ([6]; after all 5 injections, retro-orbital puncture): No abnormalities were found in the blood | onset of resistance compared with common antibiotics ([7]; S. aureus ATCC, broth microdilution, 4 duplicates): much slower onset of resistance than Ampicillin | fold elevation of the MIC ([7]; S. aureus clinical strain MRSA 204, passaged at half the MIC over 15 days): 2 fold | MIC [8]: 6 µg/mL | MIC in presence of 50% FBS [8]: 50 µg/mL | MIC ([8]; MRSA 115, planktonic, 18 hours): MRSA 115: 6 μg/ml | MIC ([8]; MRSA 165, planktonic, 18 hours): MRSA 165: 3 μg/ml | MIC ([8]; MRSA 204, planktonic, 18 hours): MRSA 204: 6 μg/ml | MIC ([8]; MRSA 274, planktonic, 18 hours): MRSA 274: 3 μg/ml | MIC ([8]; MRSA 351, planktonic, 18 hours): MRSA 351: 3 μg/ml | MIC ([8]; MRSA 418, planktonic, 18 hours): MRSA 418: 6 μg/ml | MIC ([8]; MRSA 651, planktonic, 18 hours): MRSA 651: 3 μg/ml | MIC ([8]; S. aureus ATCC29213, planktonic, 18 hours): S. aureus ATCC29213: 3 μg/ml | MIC [9]: Ps. aeruginosa ATCC27853: >100 μg/ml

RKLLFNLGSRNGIVIVATTR [F9]
attachment to polyurethane devices [10]: 2.18 ±0.12 logio CFU/catheter fragment | adhesion of C. albicans SC5314 on polystyrene ([11]; 2.5 μM peptide): dramatically decreased adhesion properties of Candida cells | adhesion of C. albicans SC5314 on polystyrene ([11]; 50 μM and 10 μM peptide): almost completely abolished Candida attachment | C. glabrata adhesion and biofilm development [12]: did not interfere with C. glabrata adhesion and biofilm development
